One may read the solubility as the dissolved amount per volume that the medium holds. Read a low solubility as little dissolved substance.

Experimental findings from publication PMC6560211, “ApoAI-derived peptide increases glucose tolerance and prevents formation of atherosclerosis in mice” (Diabetologia, 2019) are described below.

The nature of data set [1]: Peptide solubility by HPLC. The class given is physicochemical. To be noted: reconstituted RG54 peptide; assayed using HPLC. As to the method: Peptide (lyophilised powder) produced by Red Glead (Lund, Sweden) was reconstituted in Milli-Q water and then either used directly or mixed in a 1:1 ratio with 6 mol/l guanidine HCl in 2× PBS to give a monodisperse solution, followed by desalting using a column equilibrated with PBS, pH 7.4, using ÄKTAxpress fast protein LC (GE Healthcare, Uppsala, Sweden). Peptide integrity was analysed using circular dichroism spectroscopy. Peptide solubility was assayed at Red Glead using HPLC. Peptide stability in physiologic buffer or blood plasma (human or mouse) over 2 h was assayed at the Science for Life Laboratory (Uppsala, Sweden). For detailed methods, please refer to the electronic supplementary material (ESM) Methods.
The peptide RG54 was synthesised with natural amino acids and then modified with an acetylation cap on the N-terminus in order to reduce the susceptibility for proteolytic degradation by […] (ESM Fig. 3a). […] Peptide integrity following the denaturation/refolding procedure was confirmed using gel electrophoresis and circular dichroism spectroscopy analyses (ESM Fig. 3d,e) and by peptide stability assays (buffer or plasma) (ESM Fig. 3f).

Data set [2] has as its system DIO C57BL/6NTac mice. The data set is described as follows: GTT in diet-induced obesity (DIO) mice. The format is in vivo, mouse. To be noted: for insulin secretion in GTT: route comparison, n=6. How it is done:
Male C57BL/6NTac mice (Taconic, Ejby, Denmark) at 8–9 weeks of age were acclimatised for 1 week on a normal chow diet, then changed to a high-fat diet for 2 weeks (diet-induced obesity; DIO), followed by GTT as indicated. Male Lepr^db (db/db) mice on a BKS background (Taconic) at 5 weeks of age were maintained on a normal chow diet and GTTs were performed at 5.5 and 14 weeks of age as indicated. Blood glucose levels were measured in fresh blood (C57: OneTouch Ultra2, Lifescan, Milpitas, CA, USA; db/db: GlucoSmart Swing, MSP bodmann, Bobingen, Germany) and insulin levels were assayed in serum using ELISA (Mercodia) at the times indicated in ESM Fig. 2. See ESM Methods for more details.
The effect of RG54 peptide on glucose disposal was investigated in an established insulin-resistant mouse model. DIO mice were fasted for 9 h followed by a single i.p. dose of RG54 (12 mg/kg), ApoA-I (14 mg/kg), liraglutide (0.1 mg/kg), or an equal volume of NaCl solution. After a further 3 h fasting period, GTTs were performed (Fig. 4a,b).
Fig. 4 Acute treatment with RG54 improves glucose tolerance during GTTs in three models of type 2 diabetes. Male C57Bl/6 mice fed a high-fat diet for 2 weeks (a–d) or db/db mice at 5.5 (e–h) or 14 (i–l) weeks old were fasted overnight, then treated with a single i.p. injection of NaCl (negative control, 200 μl; C57, n=12; db/db 5.5 weeks, n=6; db/db 14 weeks, n=6), liraglutide (0.1 mg/kg; C57, n=11; db/db 5.5 weeks, n=6; db/db 14 weeks, n=6), ApoA-I (14 mg/kg; C57, n=12; db/db 5.5 weeks, n=6; db/db 14 weeks, n=6) or RG54 (12 mg/kg; C57, n=12; db/db 5.5 weeks, n=6; db/db 14 weeks, n=5). After a further 3 h, mice received an i.p. glucose load (40 mg/mouse for C57; 50 mg/mouse for db/db) followed by blood and plasma collection at the indicated times, and blood glucose (a,e,i) and plasma insulin (b,f,j) concentrations were determined. Total AUC was calculated (mmol/l × min for glucose, pmol/l × min for insulin) and then normalised to the average value of the relevant NaCl control group to give relative AUC (% control) for glucose (c,g,k) and insulin (d,h,l). Values are means ± SEM. *p≤0.05, **p≤0.01, ***p≤0.001 vs NaCl control […]
We directly compared the i.p. and s.c. injection routes in DIO mice. DIO mice were fasted for 9 h, followed by a single i.p. or s.c. injection of RG54 (12 mg/kg), ApoA-I (14 mg/kg), or an equal volume of NaCl solution. After a further 3 h fasting and incubation period, GTTs were performed. […] Finally, we assessed the dose response of s.c. RG54 to find treatment concentrations with full or partial effects on glycaemic control as compared with our positive control (Fig. 6).
Male C57Bl/6 mice fed a high-fat diet for 2 weeks were fasted overnight, then treated with a single i.p. or s.c. injection of NaCl (negative control, 200 μl, n=6), ApoA-I (14 mg/kg, n=6) or RG54 (12 mg/kg, n=6). After a further 3 h, all mice received an i.p. glucose load (40 mg/mouse) followed by blood and plasma collection at the indicated times, and blood glucose (a,b) and plasma insulin (d,e) concentrations were determined for all injection routes. Total AUC was calculated (mmol/l × min for glucose, pmol/l × min for insulin) and then normalised to the average value of the relevant NaCl control group to give relative AUC (% control) for glucose (c) and insulin (f). Values are means ± SEM. ***p≤0.001 vs NaCl control […]
Male C57BL/6NTac mice were purchased from Taconic (Ejby, Denmark) at 8-9 weeks of age, acclimatised for one week on normal chow diet, then changed to a High-Fat Diet (HFD; Research Diets D12492, 60% fat content) for 2 weeks, followed by glucose tolerance testing (GTT) with timings as indicated (ESM Figure 2). Male Leprdb mice (db/db) on BKS background purchased from Taconic (BKS.Cg-m+/+Leprdb/BomTac, Ejby, Denmark) at 5 weeks of age were maintained on normal chow diet and GTTs were performed at 5.5 and 14 weeks of age with timings as indicated (ESM Figure 2). For the GTTs, mice fasted overnight […]

No end group written: not given here.

In data set [1], “Ac-AEYHAKATEHLSTLSEKAKPALEDLRQGLLPVLESFKVSFLSALEEYTKKLNTQ [RG54]” returned a solubility greater than 3000 µg/mL. Also, in data set [2] (DIO mice, 3 h treatment, i.p.), the fasting glucose levels result is reported as “significantly lowered”, the fasting insulin levels result was “no concomitant increase” and the “insulin sensitivity as measured by QUICKI” value is listed as “no change”. In addition, the “insulin secretion in GTT” value in data set [2] (i.p. injection, RG54 12 mg/kg, ApoA-I 14 mg/kg) is “increased insulin secretion”. For the same substance, in data set [2] (s.c. injection, 12 mg/kg), the “insulin secretion in GTT” value is “increased glucose clearance and insulin secretion”. The “levels of serum insulin in GTT” value in data set [2] (single i.p. dose 12 mg/kg 3 h before GTT, vs NaCl, n=12) is listed as “significantly increased”.
